Test results: ChEMBL document CHEMBL3751809, “Symmetric 4,4'-(piperidin-4-ylidenemethylene)bisphenol derivatives as novel tunable estrogen receptor (ER) modulators” (Bioorg Med Chem, 2016)
The source made the active and inactive calls. The rule behind the calls is not given here.

Key:
[1] = biological target: T1, Estrogen receptor (Homo sapiens) (UniProt P03372); assay: Displacement of [6,7-3H]17beta-estradiol from recombinant human ERalpha ligand binding domain at 0.4 to 4 uM incubated for 16 hrs by scintillation counting analysis
T1 sequence (whole entry): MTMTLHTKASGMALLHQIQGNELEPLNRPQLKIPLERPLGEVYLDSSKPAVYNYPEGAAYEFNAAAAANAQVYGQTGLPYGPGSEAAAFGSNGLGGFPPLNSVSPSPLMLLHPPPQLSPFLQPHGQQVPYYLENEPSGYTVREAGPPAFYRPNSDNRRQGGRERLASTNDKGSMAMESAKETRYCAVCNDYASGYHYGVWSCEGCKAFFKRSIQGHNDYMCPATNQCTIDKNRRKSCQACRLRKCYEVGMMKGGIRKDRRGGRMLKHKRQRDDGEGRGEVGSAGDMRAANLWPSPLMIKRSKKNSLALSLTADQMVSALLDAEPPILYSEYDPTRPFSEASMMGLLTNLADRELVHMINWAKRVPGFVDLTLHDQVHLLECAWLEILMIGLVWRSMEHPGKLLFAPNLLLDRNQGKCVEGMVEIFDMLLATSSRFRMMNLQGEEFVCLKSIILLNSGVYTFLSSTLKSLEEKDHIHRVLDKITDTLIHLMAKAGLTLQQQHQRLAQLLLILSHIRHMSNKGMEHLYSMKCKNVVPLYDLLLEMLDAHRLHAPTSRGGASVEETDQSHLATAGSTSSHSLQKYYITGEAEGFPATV

[2] = biological target: T1, Estrogen receptor (Homo sapiens); assay: Displacement of [6,7-3H]17beta-estradiol from recombinant human ERalpha ligand binding domain incubated for 16 hrs by scintillation counting analysis
[3] = biological target: T1, Estrogen receptor (Homo sapiens); assay: Agonist activity at ERalpha in human MCF7 cells assessed as induction of cell proliferation incubated for 5 days by WST-8 assay; type: cell-based
[4] = biological target: T1, Estrogen receptor (Homo sapiens); assay: Antagonist activity at ERalpha in human MCF7 cells assessed as inhibition of 17beta-estradiol-mediated cell proliferation incubated for 5 days by WST-8 assay; type: cell-based

Compound	inhibition [1]	further results
CC(=O)N1CCC(=C(c2ccc(O)cc2)c2ccc(O)cc2)CC1	inactive	
CCOC(=O)N1CCC(=C(c2ccc(O)cc2)c2ccc(O)cc2)CC1		inhibition [2]: Dose-dependent effect
Oc1ccc(C(=C2CCNCC2)c2ccc(O)cc2)cc1	inactive	
CC1(C)CC(=C(c2ccc(O)cc2)c2ccc(O)cc2)CC(C)(C)N1	Active	
CN1CCC(=C(c2ccc(O)cc2)c2ccc(O)cc2)CC1	inactive	
CC(=O)N1C(C)(C)CC(=C(c2ccc(O)cc2)c2ccc(O)cc2)CC1(C)C	Active	Activity [3]: Dose-dependent effect; inhibition [4]: inactive
